In patent publication US20250163057A1, “DCN-1 MODULATING COMPOUNDS AND METHODS OF USE THEREOF” (Cellarity, Inc., priority 2023, published 2025):
Where two headings read alike, the source gives them in different places.

Tests used:
[1] = molecular target: DCN1 (DCUND1) protein PONY domain (Homo sapiens (Human), UniProt Q96GG9); experiment: TR-FRET assay, DCN1 binding with FAM-labeled probe
How it was run: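 Tb-DCN1 PONY domain (E. coli, biotin/streptavidin-Tb); FAM-labelled non-covalent inhibitor probe; TritonX buffer, 200 mM NaCl; 5 nM DCN1 + 20 nM probe or 0.31 nM DCN1 + 900 nM total probe; 0.1% DMSO; TR-FRET read 1, 5, 24 hrs.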

[2] = test system: fetal hemoglobin gene HBG1; experiment: HBG1 Nanostring Assay in CD34+ HSPC erythroid differentiation culture; assay type: cell-based, human; conditions: for EC50: Homo sapiens, 240 h, HBG1 induction, Day10 of erythroid differentiation; for Nanostring Ymax obs (%): relative to a control compound (C1)
How it was run: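 HBG1 counts came from direct nCounter hybridization (67° C, 22 h) of day-10 lysates, normalized to ERCC positive controls and a housekeeping gene, giving EC50 and Ymax versus a reference compound. Compounds in 0.1% DMSO were present from day −2 while cells underwent EPO/SCF/IL-3 erythroid differentiation, with IL-3 dropped at day 7, at 37° C.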

[3] = molecular target: DCN1 protein (Homo sapiens (Human), UniProt Q96GG9); experiment: Intact Protein MS Analysis with the RapidFire-TOF System (covalent adduct formation); assay type: binding; conditions: MS Emax; 400 nM DCN1, 3 hours at room temperature
Chain of DCN1 protein (Q96GG9 whole entry): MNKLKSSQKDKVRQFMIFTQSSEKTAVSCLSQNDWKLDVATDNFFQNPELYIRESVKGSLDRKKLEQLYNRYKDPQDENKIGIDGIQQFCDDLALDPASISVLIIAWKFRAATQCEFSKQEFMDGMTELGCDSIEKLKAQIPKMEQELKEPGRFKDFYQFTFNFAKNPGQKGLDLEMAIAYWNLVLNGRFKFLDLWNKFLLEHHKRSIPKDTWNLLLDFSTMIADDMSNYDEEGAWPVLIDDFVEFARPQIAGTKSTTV
How it was run: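 Tag-cleaved human DCN1 (400 nM) expressed in E. coli, in 25 mM Tris-HCl, 200 mM NaCl, 1 mM DTT, was incubated with 11 compound concentrations for 3 h at room temperature and quenched with 0.2% formic acid. Intact-protein Q-TOF MS with deconvolution detected the compound adduct mass.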

[4] = 24 hr after treatment with compound, read-out: TR FRET IC50 24 hr
[5] = TR FRET IC50 1 hr (nM), 1 hr after treatment with compound

Chain of DCN1 (DCUND1) protein PONY domain (Q96GG9 60-248): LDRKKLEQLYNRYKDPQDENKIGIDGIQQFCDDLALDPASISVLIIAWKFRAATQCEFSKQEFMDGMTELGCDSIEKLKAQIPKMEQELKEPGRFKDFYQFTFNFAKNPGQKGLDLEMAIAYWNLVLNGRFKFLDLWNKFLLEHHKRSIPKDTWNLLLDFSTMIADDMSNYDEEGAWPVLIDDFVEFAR

| SMILES | IC50 [1, 4] [nM] | EC50 [2] [nM] | Nanostring Ymax obs (%) [2] | % Adduct Formation [3] | IC50 [1, 5] [nM] |
| --- | --- | --- | --- | --- | --- |
| CCN1C(=O)[C@@H](NC(=O)c2cccc(C(F)(F)F)c2)[C@@H](c2ccc(F)cc2)c2c(NC(=O)C3(C#N)CCOCC3)nn(-c3ccccc3)c21 (racemic) [Compound I-66] | 200 to 1000 | > 1000 | + (Nanostring Ymax greater than or equal to 0.0 and less than or equal to 50.0) | + (MS Emax % adduct formation greater than or equal to 0.0 and less than or equal to 30.0) | – |
| C=C(CN1CCC(F)(F)C1)C(=O)NCc1nn(-c2ccccc2)c2c1[C@H](c1ccc(F)cc1)[C@H](NC(=O)c1cccc(C(F)(F)F)c1)C(=O)N2CC (racemic) [Compound I-72] | 200 to 1000 | 100 to 1000 | ++ (Nanostring Ymax greater than 50.0 and less than or equal to 100.0) | + (MS Emax % adduct formation greater than or equal to 0.0 and less than or equal to 30.0) | 200 to 1000 |
| CCN1C(=O)[C@@H](NC(=O)c2cccc(C(F)(F)F)c2)[C@@H](c2ccc(F)cc2)c2c(C3(NC#N)CC3)nn(-c3ccccc3)c21 (racemic) [Compound I-87] | ≤ 200 | 100 to 1000 | ++ (Nanostring Ymax greater than 50.0 and less than or equal to 100.0) | +++ (MS Emax % adduct formation greater than 80.0 and less than or equal to 100.0) | 200 to 1000 |
| C=C(CO)C(=O)NCc1nn(-c2ccccc2)c2c1[C@H](c1ccc(F)cc1)[C@H](NC(=O)c1cccc(C(F)(F)F)c1)C(=O)N2CC (racemic) [Compound I-116, rac-N-((4R,5R)-7-ethyl-4-(4-fluorophenyl)-3-((2-(hydroxymethyl)acrylamido)methyl)-6-oxo-1-phenyl-4,5,6,7-tetrahydro-1H-pyrazolo[3,4-b]pyridin-5-yl)-3-(trifluoromethyl)benzamide] | 200 to 1000 | > 1000 | + (Nanostring Ymax greater than or equal to 0.0 and less than or equal to 50.0) | + (MS Emax % adduct formation greater than or equal to 0.0 and less than or equal to 30.0) | 200 to 1000 |
| CCN1C(=O)[C@@H](NC(=O)c2cccc(C(F)(F)F)c2)[C@H](c2ccc(F)cc2)c2c(CN(C)C(=O)/C=C/C(=O)OC)nn(-c3ccccc3)c21 (racemic) [Compound I-141, methyl (˜{E})-4-[[(4˜{S},5˜{S})-7-ethyl-4-(4-fluorophenyl)-6-oxo-1-phenyl-5-[[3-(trifluoromethyl)benzoyl]amino]-4,5-dihydropyrazolo[3,4-b]pyridine-3-yl]methyl-methyl-amino]-4-oxo-but-2-enoate] | – | > 1000 | ++ (Nanostring Ymax greater than 50.0 and less than or equal to 100.0) | + (MS Emax % adduct formation greater than or equal to 0.0 and less than or equal to 30.0) | 200 to 1000 |
| CCN1C(=O)[C@@H](NC(=O)c2cccc(C(F)(F)F)c2)[C@@H](c2ccc(F)cc2)c2c(CCN(C)C#N)nn(-c3ccccc3)c21 (racemic) [Compound I-151, rac-N-((4R,5R)-7-ethyl-4-(4-fluorophenyl)-3-(2-(N-methylcyanamido)ethyl)-6-oxo-1-phenyl-4,5,6,7-tetrahydro-1H-pyrazolo[3,4-b]pyridin-5-yl)-3-(trifluoromethyl)benzamide] | ≤ 200 | > 1000 | ++ (Nanostring Ymax greater than 50.0 and less than or equal to 100.0) | +++ (MS Emax % adduct formation greater than 80.0 and less than or equal to 100.0) | 200 to 1000 |
| CCN1C(=O)[C@@H](NC(=O)c2cccc(C(F)(F)F)c2)[C@@H](c2ccc(F)cc2)c2c(CNC(=O)C3=C(C(=O)OC)CC3)nn(-c3ccccc3)c21 [Compound I-119] | 200 to 1000 | 100 to 1000 | ++ (Nanostring Ymax greater than 50.0 and less than or equal to 100.0) | + (MS Emax % adduct formation greater than or equal to 0.0 and less than or equal to 30.0) | 200 to 1000 |
